Patent US20140023611A1 (priority 2010, published 2014)

Columns and labels:
[1] = Stability of compounds in simulated gastric fluid (SGF); assay type: in vitro ADME; conditions: simulated gastric fluid (3 mg/mL pepsin), incubation time 6 hr, relative to t=0
Protocol: (§1) Test compounds were incubated at […] in simulated gastric fluid (SGF; standard USP solution with 3 mg/mL pepsin) or simulated intestinal fluid (SIF; standard USP solution with 3 mg/mL pancreatin) for 3 hr or 6 hr. HPLC-UV or HPLC-MS were used to determine test compound levels using peak area %. Results (Table 14) were reported as the percentage of test compound remaining after incubation in a given condition relative to test compound present at t=0 in the same condition.

[2] = Stability of compounds in simulated intestinal fluid (SIF); assay type: in vitro ADME; conditions: simulated intestinal fluid (3 mg/mL pancreatin), incubation time 6 hr, relative to t=0
Protocol: as §1

[3] = biological target: T1, rat NaP2b (SLC34A2) (Rattus norvegicus, UniProt Q9JJ09); assay: Inhibition of NaP2b-mediated Pi (33P) uptake in transfected HEK293 cells, rat NaP2b; assay type: cell-based; conditions: 33P Pi uptake, 0.1 mM phosphate, value given as pIC50 range
T1 construct: host or cells: HEK293
T1 sequence (Q9JJ09 1-695): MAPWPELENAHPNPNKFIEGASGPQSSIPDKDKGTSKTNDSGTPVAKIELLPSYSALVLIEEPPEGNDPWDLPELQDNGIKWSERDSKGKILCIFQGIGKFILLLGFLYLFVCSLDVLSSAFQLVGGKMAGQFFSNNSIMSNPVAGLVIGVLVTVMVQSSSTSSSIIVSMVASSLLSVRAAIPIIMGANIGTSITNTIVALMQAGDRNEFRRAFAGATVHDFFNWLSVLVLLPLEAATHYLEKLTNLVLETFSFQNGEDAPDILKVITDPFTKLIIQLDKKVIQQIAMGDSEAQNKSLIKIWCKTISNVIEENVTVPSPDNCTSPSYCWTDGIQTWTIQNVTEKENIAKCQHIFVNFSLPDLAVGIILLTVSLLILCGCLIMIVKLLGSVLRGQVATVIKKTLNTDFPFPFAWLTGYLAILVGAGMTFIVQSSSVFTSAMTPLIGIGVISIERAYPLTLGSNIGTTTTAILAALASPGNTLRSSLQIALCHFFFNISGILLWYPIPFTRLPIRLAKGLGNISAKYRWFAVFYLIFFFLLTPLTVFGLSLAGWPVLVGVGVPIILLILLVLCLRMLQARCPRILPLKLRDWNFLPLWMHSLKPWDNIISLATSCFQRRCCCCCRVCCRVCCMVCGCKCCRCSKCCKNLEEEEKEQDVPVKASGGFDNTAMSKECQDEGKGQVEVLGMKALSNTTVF
Summary of the method: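 HEK293 cells were transiently transfected with NaP2b cDNA using Lipofectamine and grown near confluence. Compounds were tested at twelve concentrations from 0.1 nM to 30 uM in duplicate, and 33P-phosphate uptake was counted by scintillation after lysis. Results are expressed as pIC50.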

[4] = Determination of compound Cmax and AUC after oral gavage (plasma LC-MS/MS); assay type: in vivo, Sprague-Dawley rats; conditions: Sprague-Dawley, rat, plasma, po, Structure (I) examples, Table 15, actual oral dose 3-15 mg/kg, plasma 0.5-4 h
Protocol: (§2) Sprague-Dawley rats were orally gavaged with test article at a nominal dose of 2.5 or 10 mg/kg and blood was collected at 0.5, 1, 2 and 4 h. Blood samples were processed to plasma using K2EDTA as an anticoaglulant. Plasma samples were treated with acetonitrile containing an internal standard, precipitated proteins removed by centrifugation. Supernatants were analyzed by LC-MS/MS and compound concentrations were determined by interpolation from a standard curve prepared in plasma. All compounds were orally dosed at the dosage shown, and pharmacokinetic parameters determined.
as §2, with “interpolated” for “interpolation”
as §2, with “interpolated” for “interpolation”

[5] = biological target: T2, human NaP2b (SLC34A2) (Homo sapiens, UniProt O95436); assay: Inhibition of NaP2b-mediated Pi (33P) uptake in transfected HEK293 cells, human NaP2b; assay type: cell-based; conditions: read-out: pIC50 range for human NaP2b (converted)
T2 construct: host or cells: HEK293
T2 sequence (O95436 1-690): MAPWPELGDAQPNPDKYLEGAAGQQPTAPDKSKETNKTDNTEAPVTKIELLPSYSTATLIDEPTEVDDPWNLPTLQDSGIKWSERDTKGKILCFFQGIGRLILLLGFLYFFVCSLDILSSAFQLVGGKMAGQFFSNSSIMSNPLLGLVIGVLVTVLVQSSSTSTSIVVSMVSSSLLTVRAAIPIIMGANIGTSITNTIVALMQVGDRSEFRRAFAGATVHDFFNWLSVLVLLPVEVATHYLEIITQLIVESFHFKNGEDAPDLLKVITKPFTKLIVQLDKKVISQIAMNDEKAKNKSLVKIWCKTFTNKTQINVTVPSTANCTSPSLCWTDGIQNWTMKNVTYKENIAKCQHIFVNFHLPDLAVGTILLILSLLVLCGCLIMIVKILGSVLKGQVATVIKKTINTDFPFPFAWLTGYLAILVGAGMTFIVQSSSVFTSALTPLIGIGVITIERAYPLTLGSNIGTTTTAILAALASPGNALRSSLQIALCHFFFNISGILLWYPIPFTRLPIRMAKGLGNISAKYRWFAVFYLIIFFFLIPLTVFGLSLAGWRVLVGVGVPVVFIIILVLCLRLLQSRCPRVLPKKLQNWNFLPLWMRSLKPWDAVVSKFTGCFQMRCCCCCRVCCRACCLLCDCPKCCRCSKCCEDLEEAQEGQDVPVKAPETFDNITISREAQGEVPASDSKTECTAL
Summary of the method: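 HEK293 cells transiently transfected with human NaP2b (Thr inserted after residue 37, N39D), endogenous PiT transport pharmacologically silenced. Sodium or choline buffer, pH 7.4, with 100 uM KH2PO4, 33P orthophosphate and compound (0.1 nM–30 uM, twelve concentrations, duplicate). 3-30 min at room temperature, scintillation counting, pIC50 derived.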

| % remaining, SGF [1] | % remaining, SIF [2] | IC50 [3] | AUC [4] | Cmax [4] | IC50 [5] | SMILES |
| --- | --- | --- | --- | --- | --- | --- |
| >80% | >80% | < 1000 nM |  |  |  | CN(CCOCCOCCOCCC(=O)O)C(=O)Cc1cccc(SCc2cccc(C(=O)Nc3ccc(N4CCCCC4)cc3-c3cc(C(=O)N[C@H]4CCCc5ccccc54)ccn3)c2)c1 [Example 235, (S)-3-methyl-2-oxo-1-(3-(3-(4-(piperidin-1-yl)-2-(4-(1,2,3,4-tetrahydronaphthalen-1-ylcarbamoyl)pyridin-2-yl)phenylcarbamoyl)benzylthio)phenyl)-6,9,12-trioxa-3-azapentadecan-15-oic acid] |
| >80% | >80% |  | < 10 ng·h/mL | < 10 ng/mL |  | CCN(CC)c1ccc(NC(=O)c2cccc(C(=O)N(C)CCN3CCCN(C(=O)OCCOCCOCCOCCOCCOCCOCCOCCOCCOCCOCCOC)CC3)c2)c(-c2cc(C(=O)N[C@H]3CCCc4ccccc43)ccn2)c1 [Example 199, (S)-2,5,8,11,14,17,20,23,26,29,32-undecaoxatetratriacontan-34-yl 4-(2-(3-((4-(diethylamino)-2-(4-((1,2,3,4-tetrahydronaphthalen-1-yl)carbamoyl)pyridin-2-yl)phenyl)carbamoyl)-N-methylbenzamido)ethyl)-1,4-diazepane-1-carboxylate] |
|  |  | < 1000 nM | < 10 ng·h/mL | < 10 ng/mL | < 1000 nM | CN(CCN1CCNC(=O)C1)C(=O)c1cccc(C(=O)Nc2ccc(N3CCCCC3)cc2-c2cc(C(=O)N[C@H]3CCCc4ccccc43)ccn2)c1 [Example 215, (S)—N1-methyl-N1-(2-(3-oxopiperazin-1-yl)ethyl)-N3-(4-(piperidin-1-yl)-2-(4-(1,2,3,4-tetrahydronaphthalen-1-ylcarbamoyl)pyridin-2-yl)phenyl)isophthalamide] |
|  |  | < 1000 nM | < 10 ng·h/mL | < 10 ng/mL | < 1000 nM | CCN(CC)c1ccc(NC(=O)c2cccc(CSc3cccc(CC(=O)O)c3)c2)c(-c2cc(C(=O)NCc3cccc(C(F)(F)F)c3)ccn2)c1 [Example 143, 2-(3-(3-(4-(diethylamino)-2-(4-(3-(trifluoromethyl)benzylcarbamoyl)pyridin-2-yl)phenylcarbamoyl)benzylthio)phenyl)acetic acid] |
|  |  | < 1000 nM | < 30 ng·h/mL | < 10 ng/mL | < 1000 nM | O=C(O)Cc1cccc(SCc2cccc(C(=O)Nc3ccc(N4CCCCC4)cc3-c3cc(C(=O)N[C@H]4CCCc5ccccc54)ccn3)c2)c1 [Example 234, (S)-2-(3-(3-(4-(piperidin-1-yl)-2-(4-(1,2,3,4-tetrahydronaphthalen-1-ylcarbamoyl)pyridin-2-yl)phenylcarbamoyl)benzylthio)phenyl)acetic acid] |
| >80% | >80% |  |  |  |  | CCN(CC)c1ccc(NC(=O)c2cccc(Cn3ccc4c(C(=O)NCCOCCOCCOCCC(=O)O)cccc43)c2)c(-c2cc(C(=O)N[C@H]3CCCc4ccccc43)ccn2)c1 [Example 182, (S)-1-(1-(3-(4-(diethylamino)-2-(4-(1,2,3,4-tetrahydronaphthalen-1-ylcarbamoyl)pyridin-2-yl)phenylcarbamoyl)benzyl)-1H-indol-4-yl)-1-oxo-5,8,11-trioxa-2-azatetradecan-14-oic acid] |
|  |  | < 1000 nM | < 10 ng·h/mL | < 10 ng/mL | < 1000 nM | CN1CCN(CCN(C)C(=O)c2cccc(C(=O)Nc3ccc(N4CCCCC4)cc3-c3cc(C(=O)N[C@H]4CCCc5ccccc54)ccn3)c2)CC1=O [Example 216, (S)—N1-methyl-N1-(2-(4-methyl-3-oxopiperazin-1-yl)ethyl)-N3-(4-(piperidin-1-yl)-2-(4-(1,2,3,4-tetrahydronaphthalen-1-ylcarbamoyl)pyridin-2-yl)phenyl)isophthalamide] |
|  |  | 1000 to 7940 nM |  |  | 1000 to 7940 nM | CN(CCN1CCOCC1)C(=O)c1cccc(C(=O)Nc2ccc(N3CCCCC3)cc2-c2cc(C(=O)NCc3ccc(C(C)(C)C)cc3)ccn2)c1 [Example 122, N1-(2-(4-((4-tert-butylbenzyl)carbamoyl)pyridin-2-yl)-4-(piperidin-1-yl)phenyl)-N3-methyl-N3-(2-morpholinoethyl)isophthalamide] |
|  |  | 1000 to 7940 nM |  |  | 1000 to 7940 nM | CN(CCN1CCC(C(=O)OC(C)(C)C)CC1)C(=O)c1cccc(C(=O)Nc2ccc(N3CCCCC3)cc2-c2cc(C(=O)N[C@H]3CCCc4ccccc43)ccn2)c1 [Example 244, (S)-tert-butyl 1-(2-(N-methyl-3-(4-(piperidin-1-yl)-2-(4-(1,2,3,4-tetrahydronaphthalen-1-ylcarbamoyl)pyridin-2-yl)phenylcarbamoyl)benzamido)ethyl)piperidine-4-carboxylate] |
|  |  | < 1000 nM |  |  | < 1000 nM | CCN(CC)c1ccc(NC(=O)c2cccc(CCCOCCOCCOCCOCCOCC(CO)(CO)CO)c2)c(-c2cc(C(=O)NCc3cccc(C(F)(F)F)c3)ccn2)c1 [Example 332, N-(3-(trifluoromethyl)benzyl)-2-(5-(diethylamino)-2-(3-(3-(2-(2-(2-(2-(3-hydroxy-2,2-bis(hydroxymethyl)propoxy)ethoxy)ethoxy)ethoxy)ethoxy)propyl)benzamido)phenyl)isonicotinamide] |
|  |  | 1000 to 7940 nM | < 10 ng·h/mL | < 10 ng/mL | 1000 to 7940 nM | O=C(O)CCOCCOCCOCCNC(=O)c1cccc(SCc2cccc(C(=O)Nc3ccc(N4CCCCC4)cc3-c3cc(C(=O)N[C@H]4CCCc5ccccc54)ccn3)c2)c1 [Example 233, (S)-1-oxo-1-(3-(3-(4-(piperidin-1-yl)-2-(4-(1,2,3,4-tetrahydronaphthalen-1-ylcarbamoyl)pyridin-2-yl)phenylcarbamoyl)benzylthio)phenyl)-5,8,11-trioxa-2-azatetradecan-14-oic acid] |
